From patent US8247211B2, “Glycopeptide antibiotics” (American Cyanamid Company, priority 2001, dated 2012)

Columns and labels:
Assay in all cases: In vitro antibacterial evaluation: minimum inhibitory concentration (MIC), broth dilution method
Type in all cases: cell-based
Enterococcus sp. = conditions: for MIC Enterococcus faecalis (ATCC 29212): strain ATCC 29212; for MIC Enterococcus faecium (GC 2243): strain GC 2243; for MIC Enterococcus faecalis (GC 4552): strain GC 4552; for MIC Enterococcus faecalis (GC 4553): strain GC 4553; for MIC Enterococcus faecalis (GC 4554): strain GC 4554; for MIC Enterococcus faecium (GC 4556): strain GC 4556; for MIC Enterococcus faecium (GC 4557): strain GC 4557; for MIC Enterococcus avium (GC 4558): strain GC 4558; for MIC Enterococcus faecalis (GC 6189): strain GC 6189
Method: (§1) The minimum inhibitory concentration (MIC), the lowest concentration of the antibiotic which inhibits growth of the test organism, is determined by the broth dilution method using Muller-Hinton II […] (Baltimore Biological Laboratories) following the recommendations of the National Committee for Clinical Laboratory Standards [Methods for dilution antimicrobial susceptibility tests for bacteria that grow aerobically, approved standard M7-A2, National Committee for Clinical Laboratory Standards, Villanova, Pa].
(§2) An inoculum level of 5×10^5 CFU/mL, and a range of antibiotic concentrations (64-0.06 μg/mL) is used. […] The test organisms include a spectrum of Gram-positive bacteria comprised of Staphylococcus sp., Streptococcus sp. and Enterococcus sp. These organisms include recent clinical isolates that are resistant to methicillin, penicillin and/or vancomycin.

Streptococcus sp. = test system: Streptococcus sp.
Method: as §1, §2

Staphylococcus sp. = conditions: broth dilution, 18 hours at 35° C.; for MIC Staphylococcus aureus-SMITH (GC 4543): strain SMITH GC 4543
Method: as §1, §2

Escherichia coli = conditions: for MIC Escherichia coli (GC 4560): strain GC 4560; for MIC Escherichia coli (ATCC 25922): strain ATCC 25922; for MIC Escherichia coli (GC 4559): strain GC 4559
Method: as §1, §2

[1] = Enterococcus faecalis (GC 2242), broth dilution, 18 hours at 35° C.
[2] = Enterococcus faecalis (GC 2691), broth dilution, 18 hours at 35° C.
[3] = Enterococcus faecalis (GC 3059), broth dilution, 18 hours at 35° C.
[4] = Streptococcus agalactiae (GC 4564), broth dilution, 18 hours at 35° C.
[5] = Streptococcus pneumoniae (ATCC 6301), broth dilution, 18 hours at 35° C.
[6] = Streptococcus pneumoniae (GC 1894), broth dilution, 18 hours at 35° C.
[7] = Streptococcus pneumoniae (GC 4565), broth dilution, 18 hours at 35° C.
[8] = Streptococcus pyogenes (GC 4563), broth dilution, 18 hours at 35° C.

CC(C)=CCCC(C)=CCN=C1NCC(C(O)C2NC(=O)C(C(O)C3CNC(=N)N3)NC(=O)C(Cc3ccc(OC4OC(CO)C(OC5OC6COC7(OC6C(O)C5O)C5CC6CC(C5)CC7C6)C(O)C4O)cc3)NC(=O)C(C(C)c3ccccc3)NC(=O)CNC(=O)C(CO)NC2=O)N1C1OC(CO)C(O)C(O)C1O (stereo not drawn) [Example 82, Cyclo[glycyl-β-methylphenylalanyl-O-[4-O-[4,6-O-(2-adamantylidene)hexopyranosyl]hexopyranosyl]tyrosyl-3-(2-iminoimidazolidin-4-yl)seryl-3-[1-[(3,7-dimethylocta-2,6-dien-1-yl)-imino]-3-hexopyranosylimidazolidin-4-yl]serylseryl]]
8 µg/mL: MIC Enterococcus faecium (GC 2243) (Enterococcus sp.) | MIC Enterococcus faecalis (GC 4553) (Enterococcus sp.) | MIC Coagulase Negative Staphylococcus (GC 4551) (Staphylococcus sp.) | MIC Staphylococcus aureus (ATCC 29213) (Staphylococcus sp.) | MIC Staphylococcus aureus (GC 3051) (Staphylococcus sp.) | MIC Staphylococcus aureus (GC 4541) (Staphylococcus sp.) | MIC Staphylococcus aureus (GC 4545) (Staphylococcus sp.) | MIC Staphylococcus aureus SMITH (GC 4543) (Staphylococcus sp.) | MIC Staphylococcus aureus-SMITH (GC 4543) (Staphylococcus sp.)
4 µg/mL: MIC Enterococcus avium (GC 4558) (Enterococcus sp.) | MIC Coagulase Negative Staphylococcus (GC 4547) (Staphylococcus sp.) | MIC Coagulase Negative Staphylococcus (GC 4548) (Staphylococcus sp.) | MIC Coagulase Negative Staphylococcus (GC 4549) (Staphylococcus sp.) | MIC Staphylococcus haemolyticus (GC 4546) (Staphylococcus sp.) | MIC Escherichia coli (GC 4560) (Escherichia coli)
0.25 µg/mL: MIC Streptococcus pneumoniae (GC 1894) (Streptococcus sp.; [6]) | MIC Streptococcus pneumoniae (GC 1894) (Streptococcus sp.; strain GC 1894)
1 µg/mL: MIC Streptococcus pyogenes (GC 4563) (Streptococcus sp.; [8]) | MIC Streptococcus pyogenes (GC 4563) (Streptococcus sp.; strain GC 4563)
0.5 µg/mL: MIC Streptococcus agalactiae (GC 4564) (Streptococcus sp.; [4]) | MIC Streptococcus agalactiae (GC 4564) (Streptococcus sp.; strain GC 4564)
16 µg/mL: MIC Enterococcus faecalis (GC 2242) (Enterococcus sp.; [1]) | MIC Enterococcus faecalis (GC 2691) (Enterococcus sp.; [2]) | MIC Enterococcus faecalis (GC 3059) (Enterococcus sp.; [3]) | MIC Enterococcus faecalis (ATCC 29212) (Enterococcus sp.) | MIC Enterococcus faecalis (GC 2242) (Enterococcus sp.; strain GC 2242) | MIC Enterococcus faecalis (GC 2691) (Enterococcus sp.; strain GC 2691) | MIC Enterococcus faecalis (GC 3059) (Enterococcus sp.; strain GC 3059) | MIC Enterococcus faecalis (GC 4552) (Enterococcus sp.) | MIC Enterococcus faecium (GC 4556) (Enterococcus sp.) | MIC Enterococcus faecalis (GC 6189) (Enterococcus sp.) | MIC Staphylococcus aureus (GC 1131) (Staphylococcus sp.) | MIC Staphylococcus aureus (GC 3053) (Staphylococcus sp.) | MIC Staphylococcus aureus (GC 4542) (Staphylococcus sp.) | MIC Staphylococcus aureus (GC 4544) (Staphylococcus sp.)
32 µg/mL: MIC Enterococcus faecalis (GC 4554) (Enterococcus sp.)
2 µg/mL: MIC Enterococcus faecium (GC 4557) (Enterococcus sp.) | MIC Streptococcus pneumoniae (ATCC 6301) (Streptococcus sp.; [5]) | MIC Streptococcus pneumoniae (GC 4565) (Streptococcus sp.; [7]) | MIC Streptococcus pneumoniae (ATCC 6301) (Streptococcus sp.; strain ATCC 6301) | MIC Streptococcus pneumoniae (GC 4565) (Streptococcus sp.; strain GC 4565)

CCCCCCCN1CC(C(O)C2NC(=O)C(C(O)C3CNC(=N)N3)NC(=O)C(Cc3ccc(OC4OC(CO)C(OC5OC6COC7(OC6C(O)C5O)C5CC6CC(C5)CC7C6)C(O)C4O)cc3)NC(=O)C(C(C)c3ccccc3)NC(=O)CNC(=O)C(CO)NC2=O)N(C2OC(CO)C(O)C(O)C2O)C1=N (stereo not drawn) [Example 83, Cyclo[glycyl-β-methylphenylalanyl-O-[4-O-[4,6-O-(2-adamantylidene)hexopyranosyl]hexopyranosyl]tyrosyl-3-(2-iminoimidazolidin-4-yl)seryl-3-[1-heptyl-3-hexopyranosyl-2-iminoimidazolidin-4-yl]serylseryl]]
2 µg/mL: MIC Enterococcus faecium (GC 2243) (Enterococcus sp.) | MIC Enterococcus faecalis (GC 4553) (Enterococcus sp.) | MIC Enterococcus avium (GC 4558) (Enterococcus sp.) | MIC Staphylococcus aureus (ATCC 29213) (Staphylococcus sp.) | MIC Staphylococcus aureus (GC 4541) (Staphylococcus sp.) | MIC Staphylococcus aureus (GC 4545) (Staphylococcus sp.) | MIC Staphylococcus aureus-SMITH (GC 4543) (Staphylococcus sp.) | MIC Escherichia coli (GC 4560) (Escherichia coli)
0.5 µg/mL: MIC Streptococcus pneumoniae (ATCC 6301) (Streptococcus sp.; [5]) | MIC Streptococcus pneumoniae (ATCC 6301) (Streptococcus sp.; strain ATCC 6301)
4 µg/mL: MIC Enterococcus faecalis (GC 2242) (Enterococcus sp.; [1]) | MIC Enterococcus faecalis (GC 2691) (Enterococcus sp.; [2]) | MIC Enterococcus faecalis (GC 3059) (Enterococcus sp.; [3]) | MIC Enterococcus faecalis (ATCC 29212) (Enterococcus sp.) | MIC Enterococcus faecalis (GC 2242) (Enterococcus sp.; strain GC 2242) | MIC Enterococcus faecalis (GC 2691) (Enterococcus sp.; strain GC 2691) | MIC Enterococcus faecalis (GC 3059) (Enterococcus sp.; strain GC 3059) | MIC Enterococcus faecalis (GC 4552) (Enterococcus sp.) | MIC Enterococcus faecalis (GC 4554) (Enterococcus sp.) | MIC Enterococcus faecium (GC 4556) (Enterococcus sp.) | MIC Enterococcus faecalis (GC 6189) (Enterococcus sp.) | MIC Staphylococcus aureus (GC 1131) (Staphylococcus sp.) | MIC Staphylococcus aureus (GC 3051) (Staphylococcus sp.) | MIC Staphylococcus aureus (GC 3053) (Staphylococcus sp.) | MIC Staphylococcus aureus (GC 4542) (Staphylococcus sp.) | MIC Staphylococcus aureus (GC 4544) (Staphylococcus sp.)
32 µg/mL: MIC Escherichia coli (GC 4559) (Escherichia coli)
<0.12 µg/mL: MIC Streptococcus pneumoniae (GC 1894) (Streptococcus sp.; [6]) | MIC Streptococcus pneumoniae (GC 1894) (Streptococcus sp.; strain GC 1894)
1 µg/mL: MIC Enterococcus faecium (GC 4557) (Enterococcus sp.)
64 µg/mL: MIC Escherichia coli (ATCC 25922) (Escherichia coli)
0.25 µg/mL: MIC Streptococcus agalactiae (GC 4564) (Streptococcus sp.; [4]) | MIC Streptococcus pneumoniae (GC 4565) (Streptococcus sp.; [7]) | MIC Streptococcus pyogenes (GC 4563) (Streptococcus sp.; [8]) | MIC Streptococcus pyogenes (GC 4563) (Streptococcus sp.; strain GC 4563) | MIC Streptococcus agalactiae (GC 4564) (Streptococcus sp.; strain GC 4564) | MIC Streptococcus pneumoniae (GC 4565) (Streptococcus sp.; strain GC 4565)

CCCCCCN=C1NCC(C(O)C2NC(=O)C(C(O)C3CNC(=N)N3)NC(=O)C(Cc3ccc(OC4OC(CO)C(OC5OC6COC7(OC6C(O)C5O)C5CC6CC(C5)CC7C6)C(O)C4O)cc3)NC(=O)C(C(C)c3ccccc3)NC(=O)CNC(=O)C(CO)NC2=O)N1C1OC(CO)C(O)C(O)C1O (stereo not shown) [Example 84]
4 µg/mL: MIC Enterococcus faecium (GC 2243) (Enterococcus sp.) | MIC Staphylococcus aureus (GC 4541) (Staphylococcus sp.) | MIC Staphylococcus aureus-SMITH (GC 4543) (Staphylococcus sp.) | MIC Escherichia coli (GC 4560) (Escherichia coli)
1 µg/mL: MIC Enterococcus faecium (GC 4557) (Enterococcus sp.) | MIC Streptococcus agalactiae (GC 4564) (Streptococcus sp.; [4]) | MIC Streptococcus pneumoniae (ATCC 6301) (Streptococcus sp.; [5]) | MIC Streptococcus pneumoniae (GC 4565) (Streptococcus sp.; [7]) | MIC Streptococcus pneumoniae (ATCC 6301) (Streptococcus sp.; strain ATCC 6301) | MIC Streptococcus agalactiae (GC 4564) (Streptococcus sp.; strain GC 4564) | MIC Streptococcus pneumoniae (GC 4565) (Streptococcus sp.; strain GC 4565)
>64 µg/mL: MIC Escherichia coli (ATCC 25922) (Escherichia coli)
64 µg/mL: MIC Escherichia coli (GC 4559) (Escherichia coli)
0.5 µg/mL: MIC Streptococcus pyogenes (GC 4563) (Streptococcus sp.; [8]) | MIC Streptococcus pyogenes (GC 4563) (Streptococcus sp.; strain GC 4563)
8 µg/mL: MIC Enterococcus faecalis (GC 2242) (Enterococcus sp.; [1]) | MIC Enterococcus faecalis (GC 2691) (Enterococcus sp.; [2]) | MIC Enterococcus faecalis (GC 3059) (Enterococcus sp.; [3]) | MIC Enterococcus faecalis (ATCC 29212) (Enterococcus sp.) | MIC Enterococcus faecalis (GC 2242) (Enterococcus sp.; strain GC 2242) | MIC Enterococcus faecalis (GC 2691) (Enterococcus sp.; strain GC 2691) | MIC Enterococcus faecalis (GC 3059) (Enterococcus sp.; strain GC 3059) | MIC Enterococcus faecalis (GC 4552) (Enterococcus sp.) | MIC Enterococcus faecalis (GC 4553) (Enterococcus sp.) | MIC Enterococcus faecium (GC 4556) (Enterococcus sp.) | MIC Enterococcus avium (GC 4558) (Enterococcus sp.) | MIC Enterococcus faecalis (GC 6189) (Enterococcus sp.) | MIC Staphylococcus aureus (ATCC 29213) (Staphylococcus sp.) | MIC Staphylococcus aureus (GC 1131) (Staphylococcus sp.) | MIC Staphylococcus aureus (GC 3051) (Staphylococcus sp.) | MIC Staphylococcus aureus (GC 3053) (Staphylococcus sp.) | MIC Staphylococcus aureus (GC 4542) (Staphylococcus sp.) | MIC Staphylococcus aureus (GC 4544) (Staphylococcus sp.) | MIC Staphylococcus aureus (GC 4545) (Staphylococcus sp.)
16 µg/mL: MIC Enterococcus faecalis (GC 4554) (Enterococcus sp.)
0.12 µg/mL: MIC Streptococcus pneumoniae (GC 1894) (Streptococcus sp.; [6]) | MIC Streptococcus pneumoniae (GC 1894) (Streptococcus sp.; strain GC 1894)
